Assay: Tacrolimus tissue pharmacokinetics, oral vs intra-cecal ingestible device delivery
Type: in vivo, Yorkshire-Cross farm swine
Details: swine; intra-cecal as compared to oral administration, 12 hours post-dose
Method: The primary objective of this study was to compare the tissue, plasma, rectal sample, and GI content pharmacokinetics of tacrolimus through oral versus intra-cecal ingestible device delivery in normal Yorkshire-Cross farm swine.
No further randomization procedure was employed.
Animals in Group 1 received an ingestible device containing 0.8 mL of vehicle solution (80% alcohol, 20% HCO-60). Animals in Group 2 received orally […] liquid formulation of tacrolimus at 4 mg/0.8 mL per animal (Prograf: 5 mg/mL). Animals in Group 3 received intra-cecally an ingestible device containing tacrolimus at 1 mg in 0.8 mL per ingestible device. […]
Approximately 200˜400 mg of rectal content were collected, if available, with a fecal swab (Copan Diagnostics Nylon Flocked Dry Swabs, 502CS01). The fecal swab was pre-weighed and weighed after collection in the collection tube (Sterile Tube and Cap No Media, PFPM913S), and the sample weight was recorded. […]
For tissue necropsy, small intestine fluid and cecal fluid were collected separately from all the animals into two separate square plastic bottles, and stored at −20° C. The length and diameter of the cecum and the colon was measured from one animal in each group and recorded for reference. […] All samples were weighed, and the tissue sample weights were recorded. […]

C=CC[C@@H]1/C=C(\C)C[C@H](C)C[C@H](OC)[C@H]2O[C@@](O)(C(=O)C(=O)N3CCCC[C@H]3C(=O)O[C@H](/C(C)=C/[C@@H]3CC[C@@H](O)[C@H](OC)C3)[C@H](C)[C@@H](O)CC1=O)[C@H](C)C[C@@H]2OC [tacrolimus]
mean concentration in the cecum tissue and the proximate colon tissue (FIG. 76): higher
